Legend:
Type in all cases: in vivo
4T1 cells = experiment: 4T1-BALB/c mouse breast tumor model, immunization and tumor challenge; settings: for tumor retardation: gene vaccines, three immunizations, subcutaneous 2×10^3 4T1 cells, vs mock
Method: BALB/c and C57BL/6 mice were from Charles River Laboratories or Jackson Laboratories. […] Tumor volumes were measured and calculated by (Length^2×Width/2) daily after the size was larger than 1 mm^3. Breeding pairs of BALB-neuT and FVB-neuN (FVB/N-Tg (MMTVneu) 202Mul) mice were obtained from Joseph Lustgarten, Mayo Clinic Arizona. Mice were monitored weekly for the tumor incidence after tumor size reached 1 mm^3. All experiments were performed in accordance with protocols approved by the Institutional Animal Care and Use Committee of Arizona State University. Statistical significance of differences was analyzed by a Student t-test.
The DNA fragments encoding FS peptides were cloned as a C-terminal fusion into the genetic immunization vectors pCMVi-UB (26) and pCMVi-LSrCOMPTT (27, 28) with the Bgl II and Hind III and mixed with 1:1 ratio as the vaccine antigen. Three adjuvants were encoded by genetic immunization vectors. The pCMVi-mGM-CSF vector expresses the adjuvant mouse granulocyte/macrophage colony-stimulating factor (mGM-CSF) under control of the human cytomegalovirus (CMV) promoter (27). […]. Vectors pCMVi-UB, pCMVi-LSrCOMPTT, pCMVi-LTA (also called pCMVi-LS-LTA-R192G) and pCMVi-LTB are available from the PSI:Biology-Materials Repository DNASU (dnasu.org) at Arizona State University. Additional adjuvants were the class A CpG 2216 single-stranded oligodeoxynucleotide obtained from Sigma and alum from Pierce.
Bullets for biolistic genetic immunization used the gold micronanoplex approach and were prepared as described (30) with the following changes. Two grams of 1-micron gold was used. Prior to addition of N-hydroxysuccinimide and N-(3-dimethylaminopropyl)-N′-ethylcarbodiimide hydrochloride, the gold was resuspended in 20 mL of a 0.1 M solution of 2-(N-morpholino) ethanesulfonic acid (MES), pH 6.0. DNA-gold micronanoplexes were prepared by combining, per bullet, 57 μL of cysteamine-gold solution with precipitated DNA (≤10 μg) that had been resuspended in ≤15 μL of water, and then vortexing for 10 min. To the DNA-cysteamine-gold was added 6 μL/bullet of a freshly made solution of PEI-micron gold (167 mg/mL in 0.1 M MES, pH 6, without NaCl). The pelleted micronanoplexes were washed with ethanol prior to resuspension in n-butanol (55 μL/bullet), followed by bullet formation under nitrogen gas.
For the three MS FS experiments, all mice (n=10 per group) were genetically immunized in the ear by Gene Gun at 8 weeks of age (2 shots/mouse, 60 ng pooled antigens plus 0.25 μg LTAB and 2.5 μg CpG2216 as the adjuvant for each shot) and boosted twice (two days apart) in three weeks with 1 μg pooled antigens plus the same adjuvants dosage. All mice were boosted again in two weeks with 50 μg KLH conjugated MS FS peptides with 50 μg CpG 2216 and 50 ul alum in total 100 ul PBS. […]

[1] = system: BALB-NeuT mouse breast tumor; experiment: BALB-NeuT transgenic mouse mammary cancer model, tumor free curve; settings: Mantal-Cox test
Method: BALB/c and C57BL/6 mice were from Charles River Laboratories or Jackson Laboratories. For the tumor challenge, 5×10^3 4T1 cells were injected in the mammary pad at the right flank of the mice, or 1×10^5 B16F10 cells were injected subcutaneously in the right flank of the mice. Tumor volumes were measured and calculated by (Length^2×Width/2) daily after the size was larger than 1 mm^3. Breeding pairs of BALB-neuT and FVB-neuN (FVB/N-Tg (MMTVneu) 202Mul) mice were obtained from Joseph Lustgarten, Mayo Clinic Arizona. Mice were monitored weekly for the tumor incidence after tumor size reached 1 mm^3. All experiments were performed in accordance with protocols approved by the Institutional Animal Care and Use Committee of Arizona State University. Statistical significance of differences was analyzed by a Student t-test.
Mice were genetically immunized by Gene Gun at 4-6 weeks with 100 ng of antigen(s) in pCMVi vectors, boosted twice (3-4 days apart) at 9-10 weeks with 1 μg of the same antigen(s), and boosted once at 13-14 weeks with protein. Genetic immunizations included adjuvants LTAB (0.5 μg) and CpG 2216 (5 μg). Protein boosts were 50 μg of KLH conjugated FS peptides (SMC1A-1^4, n=32; RBM FS, n=22; SLAIN2 FS, n=14 and pool of three FS neoantigens, n=37). The protein boost included 50 μg CpG 2216 and 50 μl alum in 100 μl PBS as the adjuvant. […]

B16-F10 cells = experiment: B16F10-C57BL6 mouse melanoma tumor model, genetic immunization and tumor challenge; settings: B16F10 melanoma in C57BL6, gene gun immunization, 1×10^5 cells, vs mock/control antigen CPV 172

| Sequence | tumor retardation (4T1 cells) | p, tumor free curve, 3FS pool vs individual FS antigen group [1] | tumor growth (B16-F10 cells) | 4T1 tumor growth (4T1 cells; BALB/c, gene gun plus KLH-peptide boost, 5×10^3 4T1 cells, vs empty vector/KLH) | T-cell dependence of protection (4T1 cells; depletion of CD8 or CD4 T-cells in immunized BALB/c mice, 4T1) |
| --- | --- | --- | --- | --- | --- |
| AVLLMCQLYQPWMCKEYYRLL [ZDHHC17 FS] | did not | – | – | – | – |
| IPRMQPQASANHCQLLKVMVA [SLAIN2 FS] | conferred tumor retardation | 0.43 | – | – | – |
| TAIIGPNGSGCSGVYCHEEPQGEDSSV [mSMC1A-1^4] | – | – | significant retardation of tumor growth | significantly retarded the 4T1 tumor growth | CD8 T cell dependent |

Source: patent US11976274B2, “Methods and compositions for identifying neoantigens for use in treating and preventing cancer” (Arizona Board of Regents on Behalf of Arizona State …, priority 2019, dated 2024)
